Measured values: patent US7897326B2, “Peroxisome-proliferator activated receptor-alpha agonists for organ preservation” (University of Pittsburgh-of the Commonwealth System of …, priority 2006, dated 2011)
Counter-ions that a name gives are not always drawn.

How the values were obtained:
rat kidneys [1] = assay: Light microscopy histology of isolated rat kidneys perfused 12 hours at 37° C. with L-15; settings: for histological preservation as assessed by light microscopy (screen of pharmacological agents): agent added to L-15 perfusate, 12-hour perfusion at 37° C.; for histology at the light microscopic level / histology score (0 = unrecognizable micro-structure, 10 = 30-minute flushed kidney), FIG. 1: mannitol 20 grams/L, gemfibrozil 50 mg/L, 12-hour perfusion; for histology at the light microscopic level: vs L-15 alone; for histology score (0 = unrecognizable micro-structure, 10 = 30-minute flushed kidney), FIG. 1: blinded observer
Description: Animals. Male Sprague-Dawley rats, 15 to 20 weeks-of-age, were housed in a University of Pittsburgh Medical Center animal care facility (temperature 22 EC; light cycle 12 hours; relative humidity 55%). Animals were fed Pro Laboratory RMH 3000 rodent diet (PMI Nutrition Inc., St. Louis, Mo.) and were given water ad libitum. Institutional guidelines for animal welfare were followed, and the Institutional Animal Care and Use Committee approved experimental protocols.
Preparation of Perfusion System. Due to bacterial infection associated with chronic kidney perfusion at 37° C., rat kidneys were perfused in a sterile environment. A glass perfusion system (Hugo Sachs Elektronik-Harvard Apparatus GmbH), which allowed for autoclaving and ultraviolet-light sterilization without damage to the structural integrity of the system, was used in all experiments. This system included the following components arranged in series: a jacketed glass perfusate reservoir for warming and initial oxygenation of perfusate; a jacketed glass-oxygenator for additional oxygenation; a Windkessel chamber for absorption of pulsations; a jacketed heat exchanger for warming the perfusate and trapping bubbles just before the perfusate enters the kidney; and a jacketed organ chamber to keep the kidney's surrounding environment at 37° C.
Drug Preparation. Leibovitz L-15 cell culture medium (Sigma, St. Louis, Mo.) was mixed according to the manufacture's specifications to make 2 liters and 120 mg of penicillin was added. The pH of one liter of L-15 was adjusted to 7.4, and this solution was used during the kidney isolation procedure. The other liter was further prepared with addition of various pharmacological agents, and then the pH adjusted to 7.4. Both solutions were then filtered (0.22 microns) into 1 liter containers. The solution with the experimental drug was then perfused through the kidney perfusion system at a rate of 2.6 ml/min. The other solution was placed underneath the hood where the surgery was to be done.
Kidney Isolation. Kidneys were isolated under a laminar flow hood (Labconco) fitted with a separate roller pump. The operator used sterilized latex gloves with frequent application of 75% alcohol to gloves and instruments throughout the course of the surgery. Gloves were replaced anytime the operator's hands left the surgical hood. Animals were anesthetized with Inactin (90 mg/kg, ip; Sigma), the abdomen was shaved, washed with 75% alcohol, and covered with autoclaved paper towels. The tubing, which would eventually be required for isolation, was assembled and placed in the roller pump. This tubing consisted of three sequentially smaller sections, the middle of which was the pump tubing (Harvard Apparatus). The smallest of the sections was linked, using an adaptor connector, to PE-50 tubing (which had been previously soaked in alcohol for at least 2 days). This PE-50 tubing was for insertion into the renal artery. The largest size tubing was placed into the 1 liter of room temperature L-15. The pump was turned on for a brief time, allowing all tubing to be filled with L-15 medium to remove all air bubbles from the tubing. The skin covering the abdominal cavity was cut horizontally. A light spray of alcohol was applied to the area to remove pieces of hair, followed by a horizontal cut in the same area through the muscle; exposing the internal organs. A section of sterile gauze was set to the left of the animal, and the large/small intestines were gently pulled out of the abdominal cavity and wrapped in the gauze. […] All side branches of the renal artery and vein were ligated and cut. Next, the aorta, vena cava, renal artery and renal vein were identified, cleaned of fat and connective tissue and dissected free, and ligatures were loosely placed around these vessels. […]

rat kidneys [2] = assay: Apoptag (TUNEL) staining for apoptosis in 12-hour perfused rat kidneys; settings: mannitol 20 grams/L, gemfibrozil 50 mg/L; vs L-15 alone
Description: (§1) Drug Preparation. Leibovitz L-15 cell culture medium (Sigma, St. Louis, Mo.) was mixed according to the manufacture's specifications to make 2 liters and 120 mg of penicillin was added. The pH of one liter of L-15 was adjusted to 7.4, and this solution was used during the kidney isolation procedure. The other liter was further prepared with addition of various pharmacological agents, and then the pH adjusted to 7.4. Both solutions were then filtered (0.22 microns) into 1 liter containers. The solution with the experimental drug was then perfused through the kidney perfusion system at a rate of 2.6 ml/min. The other solution was placed underneath the hood where the surgery was to be done. Kidney Isolation. Kidneys were isolated under a laminar flow hood (Labconco) fitted with a separate roller pump. The operator used sterilized latex gloves with frequent application of 75% alcohol to gloves and instruments throughout the course of the surgery. Gloves were replaced anytime the operator's hands left the surgical hood. Animals were anesthetized with Inactin (90 mg/kg, ip; Sigma), the abdomen was shaved, washed with 75% alcohol, and covered with autoclaved paper towels. The tubing, which would eventually be required for isolation, was assembled and placed in the roller pump. This tubing consisted of three sequentially smaller sections, the middle of which was the pump tubing (Harvard Apparatus). […]

Na+-K+-ATPase-α1 = assay: Western blotting and densitometry of Na+-K+-ATPase-α1 in 12-hour perfused rat kidneys; settings: mannitol 20 grams/L, gemfibrozil 50 mg/L; 12-hour perfusion
Description: as §1

rat kidney tissue = assay: Electron microscopy of isolated rat kidneys perfused 12 hours with L-15; settings: one kidney per group; mannitol 20 grams/L, gemfibrozil 50 mg/L; vs L-15 alone
Description: Drug Preparation. Leibovitz L-15 cell culture medium (Sigma, St. Louis, Mo.) was mixed according to the manufacture's specifications to make 2 liters and 120 mg of penicillin was added. The pH of one liter of L-15 was adjusted to 7.4, and this solution was used during the kidney isolation procedure. The other liter was further prepared with addition of various pharmacological agents, and then the pH adjusted to 7.4. Both solutions were then filtered (0.22 microns) into 1 liter containers. The solution with the experimental drug was then perfused through the kidney perfusion system at a rate of 2.6 ml/min. The other solution was placed underneath the hood where the surgery was to be done. Kidney Isolation. Kidneys were isolated under a laminar flow hood (Labconco) fitted with a separate roller pump. The operator used sterilized latex gloves with frequent application of 75% alcohol to gloves and instruments throughout the course of the surgery. Gloves were replaced anytime the operator's hands left the surgical hood. Animals were anesthetized with Inactin (90 mg/kg, ip; Sigma), the abdomen was shaved, washed with 75% alcohol, and covered with autoclaved paper towels. The tubing, which would eventually be required for isolation, was assembled and placed in the roller pump. This tubing consisted of three sequentially smaller sections, the middle of which was the pump tubing (Harvard Apparatus). The smallest of the sections was linked, using an adaptor connector, to PE-50 tubing (which had been previously soaked in alcohol for at least 2 days). This PE-50 tubing was for insertion into the renal artery. The largest size tubing was placed into the 1 liter of room temperature L-15. The pump was turned on for a brief time, allowing all tubing to be filled with L-15 medium to remove all air bubbles from the tubing. The skin covering the abdominal cavity was cut horizontally. A light spray of alcohol was applied to the area to remove pieces of hair, followed by a horizontal cut in the same area through the muscle; exposing the internal organs. A section of sterile gauze was set to the left of the animal, and the large/small intestines were gently pulled out of the abdominal cavity and wrapped in the gauze. […] All side branches of the renal artery and vein were ligated and cut. Next, the aorta, vena cava, renal artery and renal vein were identified, cleaned of fat and connective tissue and dissected free, and ligatures were loosely placed around these vessels. The infra-renal aorta was ligated, a small clamp was placed on the aorta just above the ligation but below the renal artery, a cut was made between the clamp and ligation, and the PE-50 tubing was inserted, secured with a ligature and advanced into the left renal artery. […]

rat kidneys [3] = assay: Urine collection from isolated perfused rat kidney; settings: 12 hours of perfusion; mannitol 20 grams/L, gemfibrozil 50 mg/L
Description: as §1

rat kidneys [4] = assay: Perfusion pressure of isolated perfused rat kidney over 12 hours; settings: mannitol 20 grams/L, gemfibrozil 50 mg/L
Description: Drug Preparation. Leibovitz L-15 cell culture medium (Sigma, St. Louis, Mo.) was mixed according to the manufacture's specifications to make 2 liters and 120 mg of penicillin was added. The pH of one liter of L-15 was adjusted to 7.4, and this solution was used during the kidney isolation procedure. The other liter was further prepared with addition of various pharmacological agents, and then the pH adjusted to 7.4. Both solutions were then filtered (0.22 microns) into 1 liter containers. The solution with the experimental drug was then perfused through the kidney perfusion system at a rate of 2.6 ml/min. The other solution was placed underneath the hood where the surgery was to be done. Kidney Isolation. Kidneys were isolated under a laminar flow hood (Labconco) fitted with a separate roller pump. The operator used sterilized latex gloves with frequent application of 75% alcohol to gloves and instruments throughout the course of the surgery. Gloves were replaced anytime the operator's hands left the surgical hood. Animals were anesthetized with Inactin (90 mg/kg, ip; Sigma), the abdomen was shaved, washed with 75% alcohol, and covered with autoclaved paper towels. The tubing, which would eventually be required for isolation, was assembled and placed in the roller pump. This tubing consisted of three sequentially smaller sections, the middle of which was the pump tubing (Harvard Apparatus). The smallest of the sections was linked, using an adaptor connector, to PE-50 tubing (which had been previously soaked in alcohol for at least 2 days). This PE-50 tubing was for insertion into the renal artery. The largest size tubing was placed into the 1 liter of room temperature L-15. The pump was turned on for a brief time, allowing all tubing to be filled with L-15 medium to remove all air bubbles from the tubing. The skin covering the abdominal cavity was cut horizontally. A light spray of alcohol was applied to the area to remove pieces of hair, followed by a horizontal cut in the same area through the muscle; exposing the internal organs. […]

Compound	histological preservation as assessed by light microscopy (screen of pharmacological agents) (rat kidneys [1])	degree of apoptosis (Apoptag staining) (rat kidneys [2])	Na+-K+-ATPase-α1 expression normalized to β-actin, FIG. 2 (Na+-K+-ATPase-α1)	glomerular ultrastructure (electron microscopy) (rat kidney tissue)	tubular ultrastructure (electron microscopy) (rat kidney tissue)	total urine volume, FIG. 4C (rat kidneys [3])	rapid increase in perfusion pressure observed in L-15 alone kidneys, FIG. 3 (rat kidneys [4])	histology at the light microscopic level (rat kidneys [1])	histology score (0 = unrecognizable micro-structure, 10 = 30-minute flushed kidney), FIG. 1 (rat kidneys [1])	initial renal perfusion pressure, FIG. 3 (rat kidneys [4]; L-15 alone approximately 50 mm Hg)
NC(=O)c1cccc(N)c1 [3-aminobenzamide]	mild protection	–	–	–	–	–	–	–	–	–
C[C@]12CCC(=O)C=C1CC[C@@H]1[C@@H]2[C@@H](O)C[C@]2(C=O)[C@@H](C(=O)CO)CC[C@@H]12 [Aldosterone, aldosterone]	mild protection	–	–	–	–	–	–	–	–	–
Cc1ccc(C)c(OCCCC(C)(C)C(=O)O)c1 [gemfibrozil]	moderate histological preservation	reduced the degree of apoptosis	slightly higher	slightly improved	only marginally better	increased total urine volume	delayed	modestly improved	statistically significantly improved the histological score	–
OC[C@@H](O)[C@@H](O)[C@H](O)[C@H](O)CO [mannitol]	moderate histological preservation	reduced the degree of apoptosis	nearly undetectable	slightly improved	only marginally better	increased total urine volume	more so	modestly improved	did not achieve statistical significance	approximately 25 mm Hg
Nc1cc(N2CCCCC2)nc(N)[n+]1OS(=O)(=O)[O-] [minoxidil sulfate]	mild protection	–	–	–	–	–	–	–	–	–
O=c1[nH]c(=O)c2[nH]c(=O)[nH]c2[nH]1 [uric acid]	mild protection	–	–	–	–	–	–	–	–	–
